Test results taken from PMC7710685 (Frontiers in Neuroscience, 2020).
Where “and” joins values, the source holds several entries; their conditions need not be identical. Identical values can stand only once. Like-named read-outs stand apart in the source and are kept apart here.

Key:
γ3 GABAA receptors = settings: competitive binding using Ro15-4513; ref Dämgen and Lüddens, 1999; cited from earlier work
α1β2γ3 receptors = tested on: α1β2γ3 receptors; set-up: method as in Davies et al., 2000; settings: ref Davies et al., 2000; cited from earlier work
[1] = target: T1, human α1β2γ1 GABAA receptors (Homo sapiens, UniProt P14867+P47870+Q8N1C3); settings: γ1 (α1β2γ1); for Modulation at 10 μM: 10 μM co-applied with GABA EC10, percentage potentiation of GABA EC10; for EC50: co-applied with GABA EC10; for Log(EC50): logarithm of EC50, mean ± SD; for Emax (%): percent of current through GABA EC10, Hill fit, 0.1 nM-10 μM
T1 sequence (Q8N1C3 36-465): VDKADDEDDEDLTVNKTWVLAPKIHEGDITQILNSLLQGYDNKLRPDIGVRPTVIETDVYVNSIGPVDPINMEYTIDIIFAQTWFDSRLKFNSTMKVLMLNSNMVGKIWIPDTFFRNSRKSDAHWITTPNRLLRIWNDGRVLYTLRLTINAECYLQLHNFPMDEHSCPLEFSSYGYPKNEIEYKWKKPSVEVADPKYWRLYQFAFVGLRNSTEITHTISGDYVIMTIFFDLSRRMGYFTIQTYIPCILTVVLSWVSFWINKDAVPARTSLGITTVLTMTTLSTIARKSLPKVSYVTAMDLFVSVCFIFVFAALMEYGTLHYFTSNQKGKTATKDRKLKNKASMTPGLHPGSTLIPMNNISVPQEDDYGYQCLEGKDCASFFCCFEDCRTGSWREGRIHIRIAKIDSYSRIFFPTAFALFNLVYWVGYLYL
T1 sequence (P47870 25-512 limits assumed): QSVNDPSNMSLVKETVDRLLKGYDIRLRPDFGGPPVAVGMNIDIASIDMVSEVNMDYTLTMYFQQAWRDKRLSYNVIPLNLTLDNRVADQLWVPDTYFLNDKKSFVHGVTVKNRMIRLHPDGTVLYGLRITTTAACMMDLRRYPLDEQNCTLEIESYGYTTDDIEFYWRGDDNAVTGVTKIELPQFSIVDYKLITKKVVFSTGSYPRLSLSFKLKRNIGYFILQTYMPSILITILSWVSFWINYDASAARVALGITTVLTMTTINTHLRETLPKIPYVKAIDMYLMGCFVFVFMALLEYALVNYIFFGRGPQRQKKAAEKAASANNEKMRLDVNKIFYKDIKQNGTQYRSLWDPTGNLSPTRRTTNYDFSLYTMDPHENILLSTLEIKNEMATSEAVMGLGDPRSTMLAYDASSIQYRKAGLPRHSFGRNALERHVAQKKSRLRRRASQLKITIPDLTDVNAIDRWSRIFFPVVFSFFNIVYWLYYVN
T1 sequence (P14867 28-456): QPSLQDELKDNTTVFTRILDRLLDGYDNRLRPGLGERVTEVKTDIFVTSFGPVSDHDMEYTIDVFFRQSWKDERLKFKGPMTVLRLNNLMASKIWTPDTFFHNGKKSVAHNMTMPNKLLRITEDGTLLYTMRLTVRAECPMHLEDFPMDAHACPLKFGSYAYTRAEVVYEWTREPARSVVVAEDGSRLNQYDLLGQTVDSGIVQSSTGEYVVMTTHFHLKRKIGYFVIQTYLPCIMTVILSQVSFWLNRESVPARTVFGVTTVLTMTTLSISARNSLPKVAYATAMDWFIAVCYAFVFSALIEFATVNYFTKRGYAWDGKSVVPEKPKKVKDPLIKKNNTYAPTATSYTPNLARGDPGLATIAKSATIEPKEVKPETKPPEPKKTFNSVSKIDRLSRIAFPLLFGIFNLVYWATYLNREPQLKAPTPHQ
Text: (§1) To ensure homogenous receptor populations and subunit orientation, we used concatenated receptors expressed in X. laevis oocytes. Concatenated pentameric constructs were created using the subunits γx-β2-α1-β2-α1 (where x = 1, 2, or 3). […] Briefly, natural restriction sites BamHI, HindIII, and KpnI restriction sites in the γ1, 2, 3, β2, or α1 subunits were removed through silent mutations using site-directed mutagenesis. […] Inserted linker lengths are as follows γx-13a-β2-27a-α1-18a-β2-27a-α1.
(§2) The collection and preparation of oocytes were done as previously described ([Ahring et al., 2016]). […] Oocytes were prepared by slicing lobes into small pieces and defolliculated through collagenase A treatment. Stage V and VI oocytes were injected with around 50 nL of 0.5 ng/nL RNA for each concatenated construct or α1/β2 subunits in a 1:1 ratio and incubated for 3–4 days at 18°C in modified Barth’s solution (96 mM NaCl, 2.0 mM KCl, 1 mM MgCl2, 1.8 mM CaCl2, 5 mM HEPES, 2.5 mM sodium pyruvate, 0.5 mM theophylline, and 100 μg/mL gentamicin; pH 7.4).
(§3) This technique was performed as previously described ([Ahring et al., 2016], [2018]; [Liao et al., 2019]). Briefly, oocytes sit in a custom-built chamber and continuously perfused with a saline solution, ‘ND96’ (96 mM NaCl, 2 mM KCl, 1 mM MgCl2, 1.8 mM CaCl2, and 10 mM HEPES; pH 7.4). Glass electrode pipettes were filled with 3 M KCl, with resistances ranging from 0.4 to 2 MΩ. Oocytes were clamped to −60 mV using an Axon GeneClamp 500B amplifier (Molecular Devices). Currents were filtered at 20 Hz with a four-pole low pass Bessel filter (Axon GeneClamp 500 B) and digitized by a Digidata 1440A (Molecular Devices). Sampling was taken at 200 Hz and analyzed using pClamp 10.2 suite (Molecular Devices).
(§4) Each recording day, a fresh stock was used to prepare dilutions. The maximal concentration of DMSO in final drug ND96 solutions was <0.1%.
(§5) The drug modulation experiments were done as follows.
(§6) The final dataset was from a minimum of four experiments and a minimum of two different X. laevis donors. Raw traces were analyzed using pClamp 10.2. Episodic traces for each application were overlaid and the baseline was subtracted. Peak current amplitude was quantified by measuring maximum inward current for each response. Peak current amplitudes (I) were fitted to the Hill equation and normalized to the maximal fitted response (Imax). […] The Emax response and EC50 values were calculated by using non-linear regression to fit the data to the Hill equation in a monophasic model with three variables (top, bottom, EC50) using GraphPad Prism 8. Efficacy at infinitely low compound concentration was set to 0, and the slope was constrained to 1. Means are reported ± one SD.

[2] = target: T2, human α1β2γ2 GABAA receptors (Homo sapiens, UniProt P14867+P18507+P47870); settings: γ2 (α1β2γ2); for Modulation at 10 μM: 10 μM co-applied with GABA EC10, percentage potentiation of GABA EC10; for Emax (%): percent of current through GABA EC10, Hill fit
Text: as §1, §2, §3, §4, §5, §6

[3] = target: T3, human α1β2γ3 GABAA receptors (Homo sapiens, UniProt P14867+P47870+Q99928); settings: for Modulation at 10 μM: 10 μM co-applied with GABA EC10, percentage potentiation of GABA EC10; for fold greater potency at γ3 receptors compared with γ2: EC50 α1β2γ2 vs α1β2γ3
T3 sequence (Q99928 18-467): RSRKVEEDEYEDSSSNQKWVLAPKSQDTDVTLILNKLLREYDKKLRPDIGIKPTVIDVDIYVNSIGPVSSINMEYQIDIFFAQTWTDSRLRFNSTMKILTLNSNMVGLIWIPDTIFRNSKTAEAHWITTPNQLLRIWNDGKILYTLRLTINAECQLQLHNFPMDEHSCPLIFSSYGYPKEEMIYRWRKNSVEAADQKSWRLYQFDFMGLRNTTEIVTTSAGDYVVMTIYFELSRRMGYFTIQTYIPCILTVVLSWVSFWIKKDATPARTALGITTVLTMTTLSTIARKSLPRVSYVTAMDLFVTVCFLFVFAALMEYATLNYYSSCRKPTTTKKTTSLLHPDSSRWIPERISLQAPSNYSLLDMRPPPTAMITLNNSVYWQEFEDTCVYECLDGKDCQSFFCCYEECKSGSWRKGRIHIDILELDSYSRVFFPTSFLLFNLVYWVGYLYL
T3 sequence (P47870 25-512 limits assumed): T1 sequence (P47870 25-512 limits assumed)
T3 sequence (P14867 28-456): T1 sequence (P14867 28-456)
Text: as §1, §2, §3, §4, §5, §6

[4] = target: T2, human α1β2γ2 GABAA receptors; assay: cell-based; settings: for EC50: EC50, γ2 (α1β2γ2), co-applied with GABA EC10; for Emax: γ2 (α1β2γ2), percent of current through GABA EC10, Hill fit
Text: as §1, §2, §3, §4, §5, §6

α2β2γ3 receptor [5] = assay: Literature: efficacy and potency of zaleplon at α2β2γ3 receptor; assay type: cell-based; settings: literature α2β2γ3 EC50 vs this paper's α1β2γ3 EC50
[6] = target: T4, human binary α1β2 GABAA receptors (Homo sapiens, UniProt P14867+P47870); settings: 10 μM co-applied with GABA EC10, percentage potentiation of GABA EC10
T4 sequence (P14867 28-456): T1 sequence (P14867 28-456)
T4 sequence (P47870 25-512 limits assumed): T1 sequence (P47870 25-512 limits assumed)
Experimental: as §2
This technique was performed as previously described ([Ahring et al., 2016], [2018]; [Liao et al., 2019]). Briefly, oocytes sit in a custom-built chamber and continuously perfused with a saline solution, ‘ND96’ (96 mM NaCl, 2 mM KCl, 1 mM MgCl2, 1.8 mM CaCl2, and 10 mM HEPES; pH 7.4). […] Sampling was taken at 200 Hz and analyzed using pClamp 10.2 suite (Molecular Devices). […]
(§7) The final dataset was from a minimum of four experiments and a minimum of two different X. laevis donors. Raw traces were analyzed using pClamp 10.2. […] Peak current amplitude was quantified by measuring maximum inward current for each response. […] The Emax response and EC50 values were calculated by using non-linear regression to fit the data to the Hill equation in a monophasic model with three variables (top, bottom, EC50) using GraphPad Prism 8. […]

α2β2γ3 receptor [7] = settings: earlier study, no reference given; cited from earlier work
[8] = target: T3, human α1β2γ3 GABAA receptors; assay: cell-based; settings: for EC50: EC50, γ3 (α1β2γ3), co-applied with GABA EC10
Text: as §1, §2, §3, §4, §5, §6

[9] = target: recombinant α1β2γ3 GABAA receptors; set-up: method as in Lippa et al., 2005; settings: ref Lippa et al., 2005, cited from earlier work
[10] = target: T1, human α1β2γ1 GABAA receptors; settings: γ1; GABA concentration-response
Text: (§8) To ensure homogenous receptor populations and subunit orientation, we used concatenated receptors expressed in X. laevis oocytes. Concatenated pentameric constructs were created using the subunits γx-β2-α1-β2-α1 (where x = 1, 2, or 3).
(§9) The collection and preparation of oocytes were done as previously described ([Ahring et al., 2016]). Briefly, ovarian lobes were removed from anesthetized adult X. laevis following protocol approval by the Animal Ethics Committee of The University of Sydney (AEC No. 2016/970) in accordance with the National Health and Medical Research Council of Australia code for the care and use of animals. […]
(§10) This technique was performed as previously described ([Ahring et al., 2016], [2018]; [Liao et al., 2019]). […] Sampling was taken at 200 Hz and analyzed using pClamp 10.2 suite (Molecular Devices).
(§11) Applications lasted for 30 s and were followed by 2–5 min of washout. EC50 and EC10 were calculated from this curve.
as §7

[11] = target: T2, human α1β2γ2 GABAA receptors; assay: GABA concentration-response, concatenated α1β2γ2 receptors in oocytes; assay type: cell-based; set-up: expressed in transfected cells; host or cells: Xenopus laevis oocytes injected with cRNA of the concatenated construct; settings: γ2
Text: as §8, §9, §10, §11, §7

T2 sequence (P18507 40-475, one chain of several): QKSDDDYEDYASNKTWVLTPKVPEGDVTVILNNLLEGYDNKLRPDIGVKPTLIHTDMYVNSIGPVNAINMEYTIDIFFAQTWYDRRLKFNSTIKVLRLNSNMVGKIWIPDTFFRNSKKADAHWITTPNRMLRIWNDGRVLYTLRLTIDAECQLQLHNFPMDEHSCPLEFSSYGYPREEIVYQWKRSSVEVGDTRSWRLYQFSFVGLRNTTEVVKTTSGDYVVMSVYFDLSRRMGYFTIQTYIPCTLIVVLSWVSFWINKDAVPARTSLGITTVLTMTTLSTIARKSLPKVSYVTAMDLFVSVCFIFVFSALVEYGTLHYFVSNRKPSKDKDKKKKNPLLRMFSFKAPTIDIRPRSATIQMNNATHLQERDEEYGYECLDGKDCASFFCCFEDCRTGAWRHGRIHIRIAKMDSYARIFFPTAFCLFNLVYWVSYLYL

Compound	Modulation at 10 μM [1] [%]	EC50 [1]	Log(EC50) [1]	Emax (%) [1]	Modulation at 10 μM [2] [%]	Modulation at 10 μM ([3]; γ3 (α1β2γ3)) [%]	EC50 [4]	Emax [4] [%]	Emax [8] [%]	EC50 [8]	further results
CN1CCN(C(=O)OC2c3nccnc3C(=O)N2c2ccc(Cl)cn2)CC1 (centres unmarked) [zopiclone]											binding affinity with γ3 compared with γ2 (γ3 GABAA receptors): marginal reduction in binding affinity; efficacy and potency at α1β2γ3 compared with α1β2γ2 (α1β2γ3 receptors): comparable efficacy and potency
CCCN(CCC)C(=O)Cc1c(-c2ccc(Cl)cc2)nc2ccc(Cl)cn12 [Alpidem, alpidem]	40	No fit	No fit	No fit	542 ± 176	126 ± 16	500 nM and 502 nM				Emax (%) [2]: 512 ± 80%; Emax (%) ([2]; listed as alpidem): 475–550%; EC50 ([3]; γ3 (α1β2γ3), co-applied with GABA EC10): No fit; Log(EC50) ([3]; γ3 (α1β2γ3), logarithm of EC50, mean ± SD): No fit; Emax (%) ([3]; γ3 (α1β2γ3), percent of current through GABA EC10, Hill fit): No fit
CCN(C(C)=O)c1cccc(-c2ccnc3c(C#N)cnn23)c1 [Zaleplon, zaleplon]	126 ± 3	No fit	No fit	No fit	305 ± 59	262 ± 53	203 nM	307 ± 34	277 ± 26	56 nM	fold less potency at α2β2γ3 than seen on α1β2γ3 (α2β2γ3 receptor [5]): 10 fold; Modulation at 10 μM ([1]; listed as zaleplon): 125%; fold greater potency at γ3 receptors compared with γ2 [3]: ~4 fold; fold greater potency at γ3 receptors compared with γ2 ([3]; listed as zaleplon): four-fold increase in potency; Modulation at 10 μM, (I-Ic)/Ic [6]: 25%; EC50 (α2β2γ3 receptor [7]): ~500 nM; binding affinity with γ3 compared with γ2 (γ3 GABAA receptors): eightfold higher affinity
CC(=O)N(C)c1cccc(-c2ccnc3c(C(=O)c4cccs4)cnn23)c1 [Indiplon, indiplon]	22 ± 7	No fit	No fit	No fit	238 ± 31	249 ± 14	10 nM and 13.1 nM	231 ± 18	263 ± 18	45 nM and 47.8 nM	fold greater potency for γ2 vs. γ3 (fold reduction in potency when γ3 replaces γ2) ([3]; EC50 α1β2γ3 vs α1β2γ2): ~4 fold
CN1C(=O)CN=C(c2ccccc2)c2cc(Cl)ccc21 [Diazepam, diazepam]	43 ± 6			No fit	272 ± 46	156 ± 35		284 ± 23	168 ± 24		Modulation at 10 μM ([1]; listed as diazepam): 40%; EC50 ([9]; recombinant α1β2γ3): 1950 nM; Emax α1β2γ2 vs. α1β2γ3 [9]: no reduction in Emax
NCCCC(=O)O [GABA, γ-Aminobutyric-acid]											Hill slope [10]: 1.22 ± 0.32; Hill slope [11]: 1.19 ± 0.55
CN1CCN(C(=O)O[C@H]2c3nccnc3C(=O)N2c2ccc(Cl)cn2)CC1 [Eszopiclone, eszopiclone]	18 ± 19	No fit	No fit	No fit	349 ± 70	199 ± 26	301 nM	356 ± 37	207 ± 20	554 nM	Modulation at 10 μM ([1]; listed as eszopiclone): 20%; fold reduction in Emax when γ3 replaced γ2 ([3]; Emax α1β2γ2 vs α1β2γ3): 1.5 fold
